# Data as given in EP4806898A1, “HETEROARYL DERIVATIVE COMPOUND AND USE THEREOF” (Voronoi Inc., priority 2023, dated 2025).
# Tests used:
# recombinant USP1 protein = target: T1, recombinant USP1 protein (Homo sapiens, UniProt O94782, DEL125-138/DEL229-408/DEL608-737); experiment: Binding affinity to recombinant USP1 protein by differential scanning fluorimetry; details: compound 100 µM; 0.03 mg/mL USP1 (Δ1-66, Δ125-138, Δ229-408, Δ608-737); Tm with compound minus Tm with DMSO; read-out: ΔTm (°C)
# T1 sequence (O94782 with tags, fused parts or gaps DEL125-138/DEL229-408/DEL608-737): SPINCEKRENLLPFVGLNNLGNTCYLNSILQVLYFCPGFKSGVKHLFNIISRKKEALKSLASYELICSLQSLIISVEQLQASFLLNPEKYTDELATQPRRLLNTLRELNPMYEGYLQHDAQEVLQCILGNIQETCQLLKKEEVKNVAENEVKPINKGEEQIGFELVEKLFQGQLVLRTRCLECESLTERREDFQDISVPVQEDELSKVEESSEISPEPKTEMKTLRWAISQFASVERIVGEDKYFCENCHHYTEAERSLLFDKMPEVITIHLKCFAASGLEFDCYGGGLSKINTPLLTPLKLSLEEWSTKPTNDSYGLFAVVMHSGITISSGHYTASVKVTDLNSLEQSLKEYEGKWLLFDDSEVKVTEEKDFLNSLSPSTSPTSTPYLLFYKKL
# Summary of the method: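 USP1 (Δ1-66, Δ125-138, Δ229-408, Δ608-737) at 0.03 mg/mL with dye in 50 mM Tris-HCl pH 8.0, 150 mM NaCl, 2% glycerol, 1 mM DTT; compounds at 100 µM final. Tm read on real-time PCR instrument; ΔTm = Tm with compound minus Tm with DMSO.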
# UWB1.289 cells = experiment: Cell proliferation inhibitory activity in BRCA1/2-mutant or HRD-positive cells (Cell Titer-Glo); assay type: cell-based; details: UWB1289; UWB1.289 cells, 144 hours after compound treatment, Cell Titer-Glo, 1.5 nM to 10 µM; read-out: GI50 UWB1.289 BRCA1 mut
# Summary of the method: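 UWB1.289 cells (1,000/well) in 50% MEBM/50% RPMI1640 exposed to […], final 1.5 nM to 10 µM, for 144 h at 37 °C. Viable cells measured by CellTiter-Glo luminescence; GI50 calculated.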
SMILES,ΔTm at 100 µM (recombinant USP1 protein),GI50 (UWB1.289 cells)
"COc1ncnc(C2CC2)c1-c1ncc2cc(C(N)=O)n(Cc3ccc(-n4nc(C(F)(F)F)cc4C)cc3)c2n1 [Example 177, 2-(4-cyclopropyl-6-methoxypyrimidin-5-yl)-7-(4-(5-methyl-3-(trifluoromethyl)-1H-pyrazol-1-yl)benzyl)-7H-pyrrolo[2,3-d]pyrimidine-6-carboxamide]",> 5 °C,< 100 nM
"CNC(=O)c1cc2cnc(-c3cccnc3OC(F)F)nc2n1Cc1ccc(-c2nc(C(F)(F)F)cn2C(C)C)cc1 [Example 178, 2-(2-(difluoromethoxy)pyridin-3-yl)-7-(4-(1-isopropyl-4-(trifluoromethyl)-1H-imidazol-2-yl)benzyl)-N-methyl-7H-pyrrolo[2,3-d]pyrimidine-6-carboxamide]",> 5 °C,< 100 nM
"COc1ncnc(C2CC2)c1-c1ncc2cc(C(=O)N3CC(N(C)C)C3)n(Cc3ccc(-c4nc(C(F)(F)F)cn4C)cc3)c2n1 [Example 179, (2-(4-cyclopropyl-6-methoxypyrimid in-5-yl)-7-(4-(1-methyl-4-(trifluoromethyl)-1H-imidazol-2-yl)benzyl)-7H-pyrrolo[2,3-d]pyrimidin-6-yl) (3-(dimethylamino)azetidin-1-yl)methanone]",> 5 °C,< 100 nM
"CNC(=O)c1cc2cnc(-c3ccccc3C(C)C)nc2n1Cc1ccc(-c2nc(C(F)(F)F)cn2C)cc1 [Example 180, 2-(2-isopropylphenyl)-N-methyl-7-(4-(1-methyl-4-(trifluoromethyl)-1H-imidazol-2-yl)benzyl)-7H-pyrrolo[2,3-d]pyrimidine-6-carboxamide]",> 5 °C,< 100 nM
"COc1ncnc(C2CC2)c1-c1ncc2cc(C(=O)N[C@H]3CN(C)C[C@@H]3F)n(Cc3ccc(-c4nc(C(F)(F)F)cn4C)cc3)c2n1 [Example 181, 2-(4-cyclopropyl-6-methoxypyrimidin-5-yl)-N-((3S,4S)-4-fluoro-1-methylpyrrolidin-3-yl)-7-(4-(1-methyl-4-(trifluoromethyl)-1H-imidazol-2-yl)benzyl)-7H-pyrrolo[2,3-d]pyrimidine-6-carboxamide]",> 5 °C,< 100 nM
"COc1ncnc(C2CC2)c1-c1ncc2cc(C(=O)N[C@H]3CN(C)C[C@H]3F)n(Cc3ccc(-c4nc(C(F)(F)F)cn4C)cc3)c2n1 [Example 182, 2-(4-cyclopropyl-6-methoxypyrimidin-5-yl)-N-((3S,4R)-4-fluoro-1-methylpyrrolidin-3-yl)-7-(4-(1-methyl-4-(trifluoromethyl)-1H-imidazol-2-yl)benzyl)-7H-pyrrolo[2,3-d]pyrimidine-6-carboxamide]",> 5 °C,< 100 nM
"[2H]C([2H])([2H])n1cc(C(F)(F)F)nc1-c1ccc(Cn2c(C(=O)NC)cc3cnc(-c4c(OC)ncnc4C4CC4)nc32)cc1 [Example 183, 2-(4-cyclopropyl-6-methoxypyrimidin-5-yl)-N-methyl-7-(4-(1-(methyl-d3)-4-(trifluoromethyl)-1H-imidazol-2-yl)benzyl)-7H-pyrrolo[2,3-d]pyrimidine-6-carboxamide]",> 5 °C,< 100 nM
"CNC(=O)c1cc2cnc(-c3c(OC4CC4)ncnc3C3CC3)nc2n1Cc1ccc(-c2nc(C(F)(F)F)cn2C)cc1 [Example 184, 2-(4-cyclopropyl-6-cyclopropoxypyrimidin-5-yl)-N-methyl-7-(4-(1-methyl-4-(trifluoromethyl)-1H-imidazol-2-yl)benzyl)-7H-pyrrolo[2,3-d]pyrimidine-6-carboxamide]",> 5 °C,< 100 nM
"COc1ncnc(C2CC2)c1-c1ncc2cc(C(=O)NC3CCN(C)CC3(F)F)n(Cc3ccc(-c4nc(C(F)(F)F)cn4C)cc3)c2n1 (centres unmarked) [Example 185, 2-(4-cyclopropyl-6-methoxypyrimidin-5-yl)-N-(3,3-difluoro-1-methylpiperidin-4-yl)-7-(4-(1-methyl-4-(trifluoromethyl)-1H-imidazol-2-yl)benzyl)-7H-pyrrolo[2,3-d]pyrimidine-6-carboxamide]",> 5 °C,< 100 nM
"CNC(=O)c1cc2cnc(-c3c(Cl)cnn3C)nc2n1Cc1ccc(-c2nc(C(F)(F)F)cn2C)cc1 [Example 186, 2-(4-chloro-1-methyl-1H-pyrazol-5-yl)-N-methyl-7-(4-(1-methyl-4-(trifluoromethyl)-1H-imidazol-2-yl)benzyl)-7H-pyrrolo[2,3-d]pyrimidine-6-carboxamide]",> 5 °C,< 100 nM
"CNC(=O)c1cc2cnc(-c3c(OC)ncnc3C3CC3)nc2n1Cc1ccc(-c2nc(C(F)(F)F)cn2[C@@H]2CCN(C)C[C@H]2F)cc1 [Example 187, 2-(4-cyclopropyl-6-methoxypyrimidin-5-yl)-7-(4-(1-((3R,4R)-3-fluoro-1-methylpiperidin-4-yl)-4-(trifluoromethyl)-1H-imidazol-2-yl)benzyl)-N-methyl-7H-pyrrolo[2,3-d]pyrimidine-6-carboxamide]",> 5 °C,< 100 nM
"CNC(=O)c1cc2cnc(-c3c(OC)ncnc3C3CC3)nc2n1Cc1ccc(-n2nc(C(C)(C)O)cc2C)cc1 [Example 188, 2-(4-cyclopropyl-6-methoxypyrimidin-5-yl)-7-(4-(3-(2-hydroxypropan-2-yl)-5-methyl-1H-pyrazol-1-yl)benzyl)-N-methyl-7H-pyrrolo[2,3-d]pyrimidine-6-carboxamide]",> 5 °C,100 to 500 nM
"CNC(=O)c1cc2cnc(-c3c(OC)ncnc3C3CC3)nc2n1Cc1ccc(-c2nc(C(F)(F)F)cn2[C@H]2CCN(C)C[C@@H]2F)cc1 [Example 189, 2-(4-cyclopropyl-6-methoxypyrimidin-5-yl)-7-(4-(1-((3S,4S)-3-fluoro-1-methylpiperidin-4-yl)-4-(trifluoromethyl)-1H-imidazol-2-yl)benzyl) -N-methyl-7H-pyrrolo [2,3-d]pyrimidine-6-carboxamide]",> 5 °C,< 100 nM
"COc1ncnc(C2CC2)c1-c1ncc2cc(C(=O)NC[C@@H](O)C(C)C)n(Cc3ccc(-c4nc(C(F)(F)F)cn4C)cc3)c2n1 [Example 190, (S)-2-(4-cyclopropyl-6-methoxypyrimidin-5-yl)-N-(2-hydroxy-3-methylbutyl)-7-(4-(1-methyl-4-(trifluoromethyl)-1H-imidazol-2-yl)benzyl)-7H-pyrrolo[2,3-d]pyrimidine-6-carboxamide]",> 5 °C,< 100 nM
"COc1ncnc(C2CC2)c1-c1ncc2cc(C(=O)N[C@@H](C)CCO)n(Cc3ccc(-c4nc(C(F)(F)F)cn4C)cc3)c2n1 [Example 191, (S)-2-(4-cyclopropyl-6-methoxypyrimidin-5-yl)-N-(4-hydroxybutan-2-yl)-7-(4-(1-methyl-4-(trifluoromethyl)-1H-imidazol-2-yl)benzyl)-7H-pyrrolo[2,3-d]pyrimidine-6-carboxamide]",> 5 °C,< 100 nM
"CNC(=O)c1cc2cnc(-c3cccc4c3N(C)CC4)nc2n1Cc1ccc(-c2nc(C(F)(F)F)cn2C)cc1 [Example 193, N-methyl-7-(4-(1-methyl-4-(trifluoromethyl)-1H-imidazol-2-yl)benzyl)-2-(1-methylindolin-7-yl)-7H-pyrrolo[2,3-d]pyrimidine-6-carboxamide]",< 5 °C,< 100 nM
"CNC(=O)c1cc2cnc(-c3c(OC)ncnc3C3CC3)nc2n1Cc1ccc(-c2nc(C(F)(F)F)cn2C)c(OC)c1 [Example 194, 2-(4-cyclopropyl-6-methoxypyrimidin-5-yl)-7-(3-methoxy-4-(1-methyl-4-(trifluoromethyl)-1H-imidazol-2-yl)benzyl)-N-methyl-7H-pyrrolo[2,3-d]pyrimidine-6-carboxamide]",> 5 °C,100 to 500 nM
"[2H]C([2H])([2H])N(C(=O)c1cc2cnc(-c3c(OC)ncnc3C3CC3)nc2n1Cc1ccc(-c2nc(C(F)(F)F)cn2C)cc1)C([2H])([2H])[2H] [Example 195, 2-(4-cyclopropyl-6-methoxypyrimidin-5-yl)-N,N-bis(methyl-d3)-7-(4-(1-methyl-4-(trifluoromethyl)-1H-imidazol-2-yl)benzyl)-7H-pyrrolo[2,3-d]pyrimidine-6-carboxamide]",> 5 °C,100 to 500 nM
"COc1ncnc(C2CC2)c1-c1ncc2cc(C(=O)N3CC(O)C3)n(Cc3ccc(-c4nc(C(F)(F)F)cn4C)cc3)c2n1 [Example 196, (2-(4-cyclopropyl-6-methoxypyrimid in-5-yl)-7-(4-(1-methyl-4-(trifluoromethyl)-1H-imidazol-2-yl)benzyl)-7H-pyrrolo[2,3-d]pyrimidin-6-yl) (3-hydroxyazetidi n-1-yl)methanone]",> 5 °C,< 100 nM
